Entries after “also recorded” stand apart in the source; their conditions may differ. Like-named read-outs stand apart in the source and are kept apart here.
Columns and labels:
[1] = mouse, microsomes, 1 h, 1 μM, pH 7.4
Experimental: (§3) Briefly, each polyamide was incubated with 1 mg/ml human or mouse microsomes at 37° C. The reaction was incubated in 100 mM KH2PO4, 2 mM NADPH, 3 mM MgCl2 at pH 7.4. Samples were also incubated in the absence of NADPH to detect NADPH-free degradation. After 60 min the samples were mixed with an equal volume of ice cold methanol stop solution. The mixture was allowed to sit on ice for at least 10 min and mixed with an equal volume of water. The samples were then centrifuged to remove the precipitates and the samples were analyzed by LC/MS/MS. Data represents % remaining by comparing with time zero concentration. The experiments were performed in duplicate.

[2] = human, microsomes, 1 h, 1 μM, pH 7.4
LNCaP cells = experiment: Cell viability WST-1 assay; assay type: cell-based; details: 72 hr incubation; read-out: half maximal inhibitory concentration, viability of LNCaP cells
Experimental: LNCaP cells were plated in clear bottom 96 well plates at 5,000-7,500 cells per well. The cells were allowed to adhere for 24-36 h before compounds were added in fresh media. Cell viability was determined by the WST-1 assay (Roche) for 77 and 85 after 24 h or 72 h incubation with cells. Cells in cytotoxicity rescue experiments were treated with 85 alone or with 3 μM for 24 h.
LNCaP cells were plated in clear bottom 96-well plates at 5,000-7,500 cells per well and allowed to adhere for 36-48 h. Compounds were then added in fresh media. Cell metabolic activity was determined by the WST-1 assay (Roche) after 72-h incubation with cells. Quantification was performed on a Perkin Elmer Victor 3 plate reader. Assays were performed in biological triplicates.

LNCaP xenografts = LNCaP xenografts in male NSG mice; assay type: in vivo; details: six injections
Experimental: All mice experiments were conducted under an approved protocol by the Institutional Animal Care and Use Committee of the California Institute of Technology. Male NOD scid gamma (NSG) mice were purchased from The Jackson Laboratory. The animals were individually caged and maintained on a standard light-dark cycle. NSG mice were engrafted with LNCaP cells (2.5 million cells) in a mixture of 1:1 media and matrigel in the left flank. Tumors were grown to ˜100 mm^3 (L×W^2) before beginning treatment with compound or vehicle. Py-Im polyamide 77 was administered once every 3 days in a 5% DMSO:PBS vehicle solution until the experiment endpoint.
To investigate if polyamide 77 could be detected in peripheral blood after SC injections, 120 nmol of 77 (in 5% DMSO/PBS) was injected into the right flank of four C57BL/6 mice. Blood was collected from anesthetized mice via retroorbital collection at 5 minutes, 4 h, and 12 h after injection, then processed by methods previously described and analyzed by HPLC (35). For measurement of serum PSA (KLK3) and uric acid, blood was collected from anesthetized mice via retroorbital collection at experimental endpoint and serum was separated from blood by centrifugation. Serum PSA (KLK3) was measured by ELISA (R&D systems) according to manufacturer's instructions. Uric acid was measured as described (36).
Tumors were resected immediately after euthanasia and fixed in neutral buffered formalin. Selected samples were embedded in paraffin, sectioned and stained with hematoxylin and eosin (H&E). Selected sections were assessed by deoxynucleotidyltransferase dUTP nick-end labeling (TUNEL) as described (45).
Mice experiments were conducted under an approved protocol by the Institutional Animal Care and Use Committee of the California Institute of Technology. Male C57BL6/J mice and male NSG mice were purchased from The Jackson Laboratory. All animals were maintained on a standard light-dark cycle. LNCaP cells (2.5 million cells) were engrafted in a mixture of 1:1 media and matrigel in the left flank of NSG mice. Tumors were allowed grow to ˜200 mm^3 (0.5×L×W^2) before treatment. Py-Im polyamide 78 was administered by SC injection once every 3 d at 1 mg/kg in a 20% (vol/vol) DMSO:Normal saline vehicle solution for 6 injections. Animals were sacrificed two days after the final injection. Animal weight and general health were monitored daily. Fourteen animals were used for each treatment group.

p53 = p53 protein ELISA in LNCaP cells; assay type: cell-based; details: polyamide 10 μM 72 hr; doxorubicin 1 μM 24 hr
Experimental: (§1) Cellular levels of RPB1 and p53 protein in LNCaP cells after treatment with 10 μM 3 for 72 h were determined by ELISA. Cells treated with DMSO vehicle and 1 μM doxorubicin for 24 h were used as control. Cellular RBP1 levels were determined by a RPB1 specific ELISA kit (Cusabio Life Sciences) according to manufacturer's instructions. Total cellular p53 protein level was determined with a pan-p53 ELISA kit (Roche) according to manufacturer's instructions. Assays were performed in biological triplicates.

[3] = Liver microsomal stability, human; details: 1 μM, Human, 1 hr at 37° C., 1 mg/ml microsomes
[4] = Escalating single dose subcutaneous injections, male C57BL/6J mice (weight, histopathology, serum)
[5] = Multiple-dose subcutaneous injections, male C57BL/6J mice; assay type: in vivo; details: 1 mg/kg SC every 3 days
Experimental: In addition to single dose injections, the effects of repeated dosing of polyamides 77-80 in mice were examined. In this experiment, 8 week-old male C57BL/6J mice (n=3 per dosing group) were treated with 1 mg/kg of polyamides 77-80 by subcutaneous injection every 3 days, for a cycle of three injections and then sacrificed two days after the final injection (FIG. 31A). As in the single dosing experiments, two mice per group were subjected to histopathology analysis and all blood samples were sent for analysis. […] These mice were promptly euthanized.
(§2) Serum from treated animals were collected by retroorbital bleeding. […] All samples were sent for analysis at IDEXX-RADIL.

[6] = Liver microsomal stability, mouse; details: 1 μM, Mouse, 1 hr at 37° C., 1 mg/ml microsomes
Experimental: as §3

RPB1 = RPB1 protein ELISA in LNCaP cells; assay type: cell-based
Experimental: as §1, with “Cellular levels of RPB1 and p53 protein in LNCaP cells after treatment with 10 μM 3 for 72 h were determined by ELISA.” left out

p53 target genes = experiment: Quantitative RT-PCR of p53 target genes in LNCaP cells; assay type: cell-based
Experimental: RNA was extracted using RNEasy columns (Qiagen) according to manufacturer's protocols. cDNA was generated from RNA by reverse transcriptase (Transcriptor First Strand cDNA kit, Roche). Quantitative real-time RT-PCR was performed using SYBR Green PCR Master Mix (Applied Biosystems) on an ABI 7300 instrument. mRNA was measured relative to B glucuronidase as an endogenous control.
The cells were then treated with 1, 3, and 10 μM of 78 for 72 h. Total cellular RNA was extracted using RNEasy columns (Qiagen) following the manufacturer's protocols. Isolated RNA was reverse transcribed with Transcriptor First Strand cDNA kit (Roche). Quantitative real-time PCR was performed using SYBR Green PCR Master Mix (Applied Biosystems) on an ABI 7300 instrument. Amplification of p21, IGFBP3, and GADD45A cDNA was measured relative to β-glucuronidase using previously published primers (24). Experiments were performed in biological replicates.

[7] = Six-injection regimen of 78 in healthy male C57BL/6J mice, serum chemistry and hematology; assay type: in vivo; details: SC 1 mg/kg, six injections
Experimental: To assess the toxicity of the treatment regimen in healthy animals, male C57BL/6J mice were treated with an identical regimen as the tumor-bearing mice and were sacrificed two days after the final injection. Because the liver and kidney were identified as the target organs of toxicity in our previous study, we assessed relevant serum markers for liver and kidney pathology (FIG. 33D). […] To examine if 78 has an effect on circulating blood counts, whole blood was sampled before treatment and at the time of sacrifice.
as §2

CC(=O)CC(c1ccccc1)c1c(O)c2ccccc2oc1=O (stereo not drawn) [Warfarin]
Mean remaining parent NADPH-free [1]: 100%
Mean remaining parent with NADPH [1]: 100%
Mean remaining parent NADPH-free [2]: 100%
Mean remaining parent with NADPH [2]: 100%

CC(=O)N[C@H](CCNC(=O)c1cc(NC(=O)c2cc(NC(=O)c3cc(NC(=O)c4nccn4C)cn3C)cn2C)cn1C)C(=O)Nc1cn(C)c(C(=O)Nc2cc(C(=O)Nc3cc(C(=O)Nc4cc(C(=O)NCCCN(C)CCCNC(=O)c5cccc(C(=O)O)c5)n(C)c4)n(C)c3)n(C)c2)n1 [Polyamide 78, ImPyPyPy-2-(R)^AcHNγ-ImPyPyPy-NHMe-IPA]
IC50 (LNCaP cells): 2100 nM
T/C (tumor weight) (LNCaP xenografts; SC 1 mg/kg every three days): 52.4%
weight loss and distress during xenograft treatment (LNCaP xenografts; SC 1 mg/kg): minimal weight loss and no signs of distress
cellular level of p53 protein (p53): increases
Mean remaining parent NADPH-free [3]: 94.9%
Mean remaining parent with NADPH [3]: 95.3%
tolerability, behavior and morbidity after single SC dose ([4]; 1, 3, 10 mg/kg): no change in behavior and appearance
overall toxicity / organ damage ([4]; single SC 1, 3, 10 mg/kg): no detectable toxicity at any dose level tested; also recorded: no detectable animal toxicity at 10 mg/kg
serum kidney markers creatinine and BUN ([4]; single SC dose): no elevation of these markers at the dose levels tested
serum liver markers AST, ALT, total bilirubin ([4]; single SC dose): no elevation of these markers at the dose levels tested
liver and kidney histopathology [5]: no histopathologic lesions consistent with toxicity
liver and kidney serum markers [5]: no histopathologic lesions consistent with toxicity or alterations in liver and kidney serum markers
weight and physical morbidity ([5]; three injections): no loss in weight or physical morbidities
Mean remaining parent NADPH-free [6]: 100%
Mean remaining parent with NADPH [6]: 97.3%
RPB1 levels (RPB1; 1 μM for 72 h as printed): reduced RPB1 levels
RPB1 protein (RPB1; polyamide 10 μM 72 hr, doxorubicin 1 μM 24 hr): decreases
induction of p53 target genes (p53 target genes): induced by 78 in a dose-dependent fashion
circulating blood counts [7]: No significant hematologic changes
serum markers for liver and kidney pathology [7]: no elevations in AST, ALT, total bilirubin, creatinine, or BUN
